Article PMC4913548 (OncoTargets and therapy, 2016)

Biological target: estrogen receptor α (Homo sapiens, UniProt P03372)
Assay: ERE-Luc/catD-Luc reporter assay in SH-SY5Y cells
Type: cell-based

estrogen receptor α, sequence (P03372 whole entry): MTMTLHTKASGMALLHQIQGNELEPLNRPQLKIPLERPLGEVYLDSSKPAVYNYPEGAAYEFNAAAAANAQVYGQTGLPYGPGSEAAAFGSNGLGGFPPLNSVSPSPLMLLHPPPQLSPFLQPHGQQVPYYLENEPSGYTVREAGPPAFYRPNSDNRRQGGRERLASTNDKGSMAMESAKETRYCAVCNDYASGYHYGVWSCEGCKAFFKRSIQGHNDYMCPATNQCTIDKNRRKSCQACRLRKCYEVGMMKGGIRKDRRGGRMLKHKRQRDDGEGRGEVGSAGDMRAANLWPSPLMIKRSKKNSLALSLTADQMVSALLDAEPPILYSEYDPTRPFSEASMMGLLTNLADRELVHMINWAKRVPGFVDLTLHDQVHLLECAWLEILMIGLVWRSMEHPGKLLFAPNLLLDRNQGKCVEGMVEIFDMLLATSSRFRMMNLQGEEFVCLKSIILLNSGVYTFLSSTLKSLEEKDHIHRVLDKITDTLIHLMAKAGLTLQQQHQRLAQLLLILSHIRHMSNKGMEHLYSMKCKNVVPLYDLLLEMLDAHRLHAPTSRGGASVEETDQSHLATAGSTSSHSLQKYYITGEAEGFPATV

nonylphenol was tested, and the EC50 was 580 ± 250 nM.
